Measured values reported in ChEMBL document CHEMBL4265965, “Dichloroacetophenones targeting at pyruvate dehydrogenase kinase 1 with improved selectivity and antiproliferative activity: Synthesis and structure-activity relationships” (Bioorg Med Chem Lett, 2018).
The source made the active and inactive calls. No cut-off for these calls is given here.

What was measured:
Type in all cases: functional
NCI-H1650 [1] = assay: Antiproliferative activity against human NCI-H1650 cells assessed as inhibition of cell proliferation at 6 uM after 72 hrs by MTT assay relative to control; conditions: for inhibition at 6 µM: NCI-H1650, 72 h
A549 [2] = assay: Antiproliferative activity against human A549 cells assessed as inhibition of cell proliferation at 12 uM after 72 hrs by MTT assay relative to control; conditions: A549, 72 h
A549 [3] = assay: Antiproliferative activity against human A549 cells assessed as inhibition of cell proliferation at 2 uM after 72 hrs by MTT assay relative to control; conditions: for inhibition at 2 µM: A549, 72 h
NCI-H1975 [4] = assay: Antiproliferative activity against human NCI-H1975 cells assessed as inhibition of cell proliferation at 2 uM after 72 hrs by MTT assay relative to control; conditions: for inhibition at 2 µM: NCI-H1975, 72 h
NCI-H1975 [5] = assay: Antiproliferative activity against human NCI-H1975 cells assessed as inhibition of cell proliferation at 6 uM after 72 hrs by MTT assay relative to control; conditions: for inhibition at 6 µM: NCI-H1975, 72 h
NCI-H1650 [6] = assay: Antiproliferative activity against human NCI-H1650 cells assessed as inhibition of cell proliferation at 2 uM after 72 hrs by MTT assay relative to control; conditions: for inhibition at 2 µM: NCI-H1650, 72 h
NCI-H1975 [7] = assay: Antiproliferative activity against human NCI-H1975 cells assessed as inhibition of cell proliferation at 12 uM after 72 hrs by MTT assay relative to control; conditions: NCI-H1975, 72 h
A549 [8] = assay: Antiproliferative activity against human A549 cells assessed as inhibition of cell proliferation at 6 uM after 72 hrs by MTT assay relative to control; conditions: for inhibition at 6 µM: A549, 72 h
NCI-H1650 [9] = assay: Antiproliferative activity against human NCI-H1650 cells assessed as inhibition of cell proliferation at 12 uM after 72 hrs by MTT assay relative to control; conditions: NCI-H1650, 72 h

SMILES	inhibition at 6 µM (NCI-H1650 [1])	inhibition at 12 µM (A549 [2])	inhibition at 2 µM (A549 [3])	inhibition at 2 µM (NCI-H1975 [4])	inhibition at 6 µM (NCI-H1975 [5])	inhibition at 2 µM (NCI-H1650 [6])	inhibition at 12 µM (NCI-H1975 [7])	inhibition at 6 µM (A549 [8])	inhibition at 12 µM (NCI-H1650 [9])	inhibition (A549 [3])	inhibition (NCI-H1650 [1])	inhibition (NCI-H1975 [4])	inhibition (NCI-H1975 [5])	inhibition (NCI-H1650 [6])	inhibition (A549 [8])
O=C(c1ccc(I)cc1)C(Cl)Cl	65.6%	74.4%	9.3%	33.8%	91.4%	29.3%	96.8%	52.3%	99.6%						
COc1cccc2c1C(=O)c1c(O)c3c(c(O)c1C2=O)C[C@@](O)(C(=O)CO)C[C@@H]3O[C@H]1C[C@H](N)[C@H](O)[C@H](C)O1 [DOXORUBICIN]	86.9%	98.9%	52.3%	72.4%	90.6%	60.5%	98.6%	86.7%	99.6%						
N#Cc1ccc(C(=O)C(Cl)Cl)cc1	65.8%	61.4%	8.5%	54.6%	99.4%	11.8%	99.7%	15.9%	96.5%						
O=C(c1ccc(Cl)cc1Cl)C(Cl)Cl	89%	48.4%	1.8%	80.2%	96.9%	35.2%	99%	4.4%	99.8%						
CCc1cccc(C(=O)C(Cl)Cl)c1	64.1%	63.2%	22.6%	28%	85.9%	23.7%	96.9%	25.7%	98.7%						
CC(C)c1ccc(C(=O)CCl)cc1[N+](=O)[O-]	59.7%	75.6%		9%	50.4%	18.4%	99%	28.7%	95.7%	inactive					
O=C(c1cccc([N+](=O)[O-])c1)C(Cl)Cl	82.1%	85.9%	13.4%	62.2%	98.5%	25.5%	99.9%	44.2%	99.9%						
O=C(c1ccc(F)cc1)C(Cl)Cl	62.9%	48.1%	4.7%	15.4%	92.1%	26.5%	98.3%	15.5%	95.5%						
O=C(c1ccc(F)cc1F)C(Cl)Cl	65.5%	58.5%	4.8%	74.3%	97.5%	30.8%	98.7%	50.1%	95.3%						
O=C(c1cccc(Br)c1)C(Cl)Cl	43.6%	72%	15.6%	44.9%	86.2%	18.1%	97.4%	24.7%	79.6%						
O=C(c1cccc(Cl)c1)C(Cl)Cl	76.3%	82.8%	14.2%	37%	95.9%	24.9%	98.4%	53.1%	99.1%						
O=C(c1cccc(I)c1)C(Cl)Cl	82%	89.8%	20.4%	64%	97.5%	46.1%	99.1%	67%	98.7%						
O=C(c1ccc(Cl)c(C(F)(F)F)c1)C(Cl)Cl	95.3%	94.5%	27.6%	70.1%	97.6%	55.7%	98.4%	79.5%	100%						
O=C(c1cccc(C(F)(F)F)c1)C(Cl)Cl	65.9%	77.9%	11%	45.8%	96.6%	24%	97.8%	28.4%	97.5%						
CC(C)c1ccc(C(=O)C(Cl)(Cl)Cl)cc1[N+](=O)[O-]		12.5%					31.2%		22.6%	inactive	inactive	inactive	inactive	inactive	inactive
Cc1cccc(C(=O)C(Cl)Cl)c1	79.9%	91.3%	14.2%	42.5%	97.3%	33.3%	96.7%	65.6%	96.8%						
O=C(c1ccc(Br)cc1)C(Cl)Cl	37.8%	48.8%		13.3%	67.7%	23.5%	96.1%	16.2%	73.4%	inactive					
O=C(c1ccc(Br)c([N+](=O)[O-])c1)C(Cl)Cl		50.5%	6.5%	9.1%	74.1%		98.9%	14.1%	59.1%		inactive			inactive	
O=C(c1ccc(F)c([N+](=O)[O-])c1)C(Cl)Cl		51.1%	7%	6.5%	73.3%		97.6%	20.4%	14.5%		inactive			inactive	
O=C(c1ccc(C(F)(F)F)cc1)C(Cl)Cl	49.7%	85.9%	18.6%	47.8%	91.6%	25.8%	98.2%	37.1%	75.5%						
O=C(c1ccc([N+](=O)[O-])cc1)C(Cl)Cl	98.5%	97.6%	24.5%	77.8%	99.6%	35%	99.4%	70.5%	99.9%						
